From patent US11008290B2, “Halogenated quinoline derivatives as antimicrobial agents” (University of Florida Research Foundation, Incorporated, priority 2015, dated 2021)
Converted amounts (≈) assume the structure as drawn. Read-outs that look alike come from different tables or passages of the source.

How the values were obtained:
[1] = system: human red blood cells; assay: Hemolysis assay; format: cell-based
Method: Freshly drawn human red blood cells (hRBC with ethylenediaminetetraacetic acid (EDTA) as an anticoagulant) were washed with Tris-buffered saline (0.01M Tris-base, 0.155M sodium chloride (NaCl), pH 7.2) and centrifuged for 5 minutes at 3500 rpm. The washing was repeated three times with the buffer. In 96-well plate, the test compounds were added to the buffer. […] The plate was then incubated for 1 hour at 37° C. After incubation, the plate is centrifuged for 5 minutes at 3500 rpm. Then 80 μL of the supernatant were transferred to another 96-well plate and the Optical Density (OD) was read at 405 nm. […] The percent of hemolysis was calculated as (OD405 of the compound-OD405 DMSO)/(OD405 Triton X-OD405 buffer).

[2] = system: MRSA BAA-1707; assay: Calgary Biofilm Device (CBD) MBC/MBEC determination; format: cell-based, Staphylococcus aureus; conditions: for MBC: Staphylococcus aureus, read-out: MRSA BAA-1707 MBC; for MRSA BAA-1707 MBEC: biofilm eradication, second value of cell
Method: (§1) Biofilm eradication experiments were performed using the Calgary Biofilm Device to determine MBC/MBEC values for various compounds of interest (Innovotech, product code: 19111). The Calgary device (96-well plate with lid containing 96 total pegs to establish biofilms; 1 peg/well) was inoculated with 125 μL of a mid-log phase culture diluted 1,000-fold in tryptic soy broth with 0.5% glucose (TSBG) to establish bacterial biofilms after incubation at 37° C. for 24 hours. The lid of the Calgary device was then removed, washed and transferred to another 96-well plate containing 2-fold serial dilutions of the test compounds (the “challenge plate”). The total volume of media with compound in each well in the challenge plate was 150 μL. The Calgary device was then incubated at 37° C. for 24 hours. The lid was then removed from the challenge plate and MBC/MBEC values were determined using different final assays. […] The MBC values were determined as the concentration giving a lack of visible bacterial growth (e.g., turbidity). For determination of MBEC values, the Calgary device lid (with attached pegs/treated biofilms) was transferred to a new 96-well plate containing 150 μL of fresh TSBG media in each well and incubated for 24 hours at 37° C. to allow viable biofilms to grow and disperse resulting in turbidity after the incubation period. […] In select experiments, treated pegs from the Calgary device were removed from lead biofilm eradicators after final incubation, sonicated for 30 minutes in PBS and plated out to determine biofilm cell killing (e.g., colony forming unit per milliliter, CFU/mL).

[3] = system: methicillin-resistant Staphylococcus epidermidis (MRSE; ATCC 35984); assay: Minimum inhibitory concentration (MIC) susceptibility assay, broth microdilution; format: cell-based; conditions: read-out: MRSE MIC
Method: (§2) The minimum inhibitory concentration (MIC) for each compound was determined by the broth microdilution method as recommended by the Clinical and Laboratory Standards Institute (CLSI). In a 96-well plate, eleven two-fold serial dilutions of each compound were made in a final volume of 100 μL Luria Broth. Each well was inoculated with ˜10^5 bacterial cells at the initial time of incubation, prepared from a fresh log phase culture (OD600 of 0.5 to 1.0 depending on bacterial strain). […] The concentration range tested for each compound during this study was 0.10 to 100 μM. DMSO served as the vehicle and negative control in each microdilution MIC assay. DMSO was serially diluted with a top concentration of 1% v/v. Bacterial strains used: methicillin-resistant Staphylococcus aureus-2 (MRSA-2; clinical isolate from Shands Hospital in Gainesville, Fla.), methicillin-resistant Staphylococcus epidermidis (MRSE; ATCC 35984), vancomycin-resistant Enterococcus faecium (VRE, ATCC 700221).

[4] = system: methicillin-resistant Staphylococcus aureus-2 (MRSA-2; clinical isolate); assay: as above; format: cell-based; conditions: read-out: MRSA-2 MIC
Method: as §2

[5] = system: vancomycin-resistant Enterococcus faecium (VRE, ATCC 700221); assay: as above; format: cell-based; conditions: read-out: VRE MIC
Method: as §2

[6] = system: MRSE (ATCC 35984) planktonic cells and biofilms; assay: Calgary Biofilm Device (CBD) MBC/MBEC determination; format: cell-based, Staphylococcus epidermidis; conditions: for MBC: Staphylococcus epidermidis
Method: as §1

[7] = system: VRE (ATCC 700221) planktonic cells and biofilms; assay: as above; format: cell-based, Enterococcus faecium; conditions: Enterococcus
Method: as §1

[8] = system: MRSA-2 planktonic cells and biofilms; assay: as above; format: cell-based, Staphylococcus aureus; conditions: planktonic killing, CBD, first value of MBC/MBEC cell
Method: as §1

[9] = Table 2, human red blood cells, 1 hour at 37° C.
[10] = Table 4, planktonic killing, CBD, first value of cell
[11] = Table 3, planktonic killing, CBD, first value of cell, read-out: MRSE MBC
[12] = Table 3, planktonic killing, CBD, first value of cell, footnote c = lowest concentration tested, read-out: VRE MBC
[13] = Staphylococcus aureus, MRSA, Table 3, read-out: MRSA-2 MBC
[14] = Staphylococcus epidermidis, Table 3
[15] = Staphylococcus, MRSA, Table 3, at least three independent experiments

melting point [°C]	MIC ([5]; Table 3) [µM]	MIC [3, 14] [µM]	MIC [4, 15] [µM]	Compound	MBC [2, 10] [µM]	% Haemolysis at 200 μM ([1]; human, 1 h, pH 7.2) [%]	MBC [6, 11] [µM]	MBC [7, 12] [µM]	MBC [8, 13] [µM]	other results
131 to 133	–	–	–	OCc1ccc2c(Br)cc(Br)c(O)c2n1 [HQ-11, 5,7-dibromo-2-(hydroxymethyl)quinolin-8-ol]	–	–	–	–	–	–
114 to 116	–	–	–	CC(O)c1ccc2c(Br)cc(Br)c(O)c2n1 (stereo not drawn) [HQ-13, 5,7-dibromo-2-(1-hydroxyethyl)-8-hydroxyquinoline]	–	–	–	–	–	–
172 to 174	–	–	–	N=C(N)c1ccc2c(Br)cc(Br)c(O)c2n1 [HQ-14, 5,7-dibromo-8-hydroxyquinoline-2-carboximidamide]	–	–	–	–	–	–

Second part, the compound before the results:

Compound	melting point [°C]	MIC ([5]; Table 3) [µM]	MIC [3, 14] [µM]	MIC [4, 15] [µM]	MBC [2, 10] [µM]	% Haemolysis at 200 μM ([1]; human, 1 h, pH 7.2) [%]	MBC [6, 11] [µM]	MBC [7, 12] [µM]	MBC [8, 13] [µM]	other results
CC(=O)NC[C@H]1CN(c2ccc(N3CCOCC3)c(F)c2)C(=O)O1 [Linezolid, reference compound]	–	3.13 (≈ 1.06 µg/mL)	–	–	31.3 (≈ 10.6 µg/mL)	–	–	–	–	% Haemolysis at 200 μM [1, 9]: ≤1%; % Haemolysis at 200 μM ([1]; Table 3, human red blood cells): ≤1%; MRSA BAA-1707 MBEC ([2]; Table 4, CBD): unable to eradicate; MIC ([3]; Staphylococcus epidermidis, Table 2, ATCC 35984): 3.13 µM (≈ 1.06 µg/mL); MIC ([3]; Table 3): 3.13 µM (≈ 1.06 µg/mL); MIC ([4]; Staphylococcus, MRSA, Table 2, 2 to 6 independent experiments): 3.13 µM (≈ 1.06 µg/mL); MIC ([4]; Table 3, at least three independent experiments): 3.13 µM (≈ 1.06 µg/mL); MIC ([5]; Table 2, ATCC 700221): 3.13 µM (≈ 1.06 µg/mL)
Oc1c(Br)cc(Br)c2ccc(CNc3ccc(F)cc3)nc12 [RA-HQ-12]	–	0.78 (≈ 0.332 µg/mL)	0.39 (≈ 0.166 µg/mL)	0.39 (≈ 0.166 µg/mL)	15.6 (≈ 6.65 µg/mL)	≤1	3.9 (≈ 1.66 µg/mL)	1 (≈ 0.426 µg/mL)	31.3 (≈ 13.3 µg/mL)	MBEC:MBC ratio ([6]; MRSE 35984, CBD): ~1; fold more potent than HQ-1 (MBEC) ([2]; MRSA BAA-1707): 6 fold
Oc1c(Br)cc(Br)c2ccc(CNc3ccccc3Br)nc12 [RA-HQ-16]	–	0.78 (≈ 0.38 µg/mL)	0.2 (≈ 0.0974 µg/mL)	1.56 (≈ 0.76 µg/mL)	93.8 (≈ 45.7 µg/mL)	≤1	46.9 (≈ 22.8 µg/mL)	7.8 (≈ 3.8 µg/mL)	188 (≈ 91.6 µg/mL)	–
Oc1c(I)cc(I)c2ccc(CNc3ccc(Br)cc3)nc12 [RA-HQ-23]	–	25 (≈ 14.5 µg/mL)	12.5 (≈ 7.26 µg/mL)	25 (≈ 14.5 µg/mL)	–	3.3	125 (≈ 72.6 µg/mL)	31.3 (≈ 18.2 µg/mL)	> 1000	–
CN[C@H](CC(C)C)C(=O)N[C@H]1C(=O)N[C@@H](CC(N)=O)C(=O)N[C@H]2C(=O)N[C@H]3C(=O)N[C@H](C(=O)N[C@H](C(=O)O)c4cc(O)cc(O)c4-c4cc3ccc4O)[C@H](O)c3ccc(c(Cl)c3)Oc3cc2cc(c3O[C@@H]2O[C@H](CO)[C@@H](O)[C@H](O)[C@H]2O[C@H]2C[C@](C)(N)[C@H](O)[C@H](C)O2)Oc2ccc(cc2Cl)[C@H]1O [Vancomycin, reference compound]	–	>100	–	–	–	–	–	–	–	% Haemolysis at 200 μM [1, 9]: ≤1%; % Haemolysis at 200 μM ([1]; Table 3, human red blood cells): ≤1%; MBC ([6]; read-out: MRSE ATCC 35984 MBC): 3 µM (≈ 4.35 µg/mL); MBC ([6]; read-out: MRSE MBC): 3 µM (≈ 4.35 µg/mL); MBC ([7]; read-out: VRE ATCC 700221 MBC): > 200 µM; MBC ([7]; read-out: VRE MBC): > 200 µM; MBC [2]: 5.9 µM (≈ 8.55 µg/mL); MRSA BAA-1707 MBEC ([2]; Table 4, CBD): unable to eradicate; MBC ([8]; Staphylococcus aureus, MRSA, read-out: MRSA-2 Clinical Isolate MBC, Table 2): 3 to 62.5 µM (≈ 4.35 to 90.6 µg/mL); MBC ([8]; Staphylococcus aureus, MRSA, read-out: MRSA-2 MBC, Table 3): 3 µM (≈ 4.35 µg/mL); MBC ([8]; Table 2, read-out: MRSA-2 Clinical Isolate MBC): 3.0 µM (≈ 4.35 µg/mL); MIC [5]: > 100 µM
